Measurements published in US5470852A, “Tetrahydroprotoberberine quaternary ammonium compounds useful in for treating arrhythmia” (priority 1991, dated 1995).
Where two headings read alike, the source gives them in different places.

Tests used:
[1] = test system: anaesthetized rats; settings: for Antiarrhythmic effect / Arrhythmic scores / Lethal risk: X ± SD; for Incidence of VF: n=10; for animals with VF / animals without VF / Death: of n=10; for therapeutic index (TI), VF / therapeutic index (TI), arrhythmias: rat, in vivo
[2] = test system: pathological papillary muscles in rats (cardiomyopathy); assay: Action potential in papillary muscles of rats with cardiomyopathy (L-thyrotoxin); assay type: cell-based, rat
Source text: Effect of I13 (μ mol/L) on estimates of action potential induced in
normal and pathological papillary muscles in rats.

[3] = test system: guinea pig papillary muscles; assay: Action potential of guinea pig papillary muscles under anoxia, high K+ and acidosis; assay type: cell-based
Source text: Effect of I13 (μ mol/L) on estimates of action potential of guinea
papillary muscles under anoxia, high K^+ and acidosis

[4] = cardiomyopathy, n=5, I13 concentration not given
[5] = anoxia, high K+ and acidosis, I13 concentration not given

## COc1ccc2c(c1OC)C[N+]1(Cc3ccc(Cl)cc3)CCc3cc4c(cc3C1C2)OCO4 (stereo not shown) [Compound I13, 7-(4-chlorobenzyl)-5,8,13,13a-tetrahydroberberine chloride]
[1]; po 10 mg/kg, coronary occlusion 10 min
  Antiarrhythmic effect: 0.50 ± 0.16
[1]; po 10 mg/kg
  Incidence of VF: 20%
  animals with VF: 2
  animals without VF: 8
[1]; po 10 mg/kg, reperfusion 0.17 min
  Antiarrhythmic effect: 2.6 ± 1.8
[1]; po 10 mg/kg, reperfusion 0.33 min
  Antiarrhythmic effect: 2.7 ± 1.9
[1]; po 10 mg/kg, reperfusion 0.5 min
  Antiarrhythmic effect: 1.9 ± 1.7
[1]; po 10 mg/kg, reperfusion 1 min
  Antiarrhythmic effect: 1.9 ± 1.6
[1]; po 10 mg/kg, reperfusion 1.5 min
  Antiarrhythmic effect: 1.4 ± 1.3
[1]; po 10 mg/kg, reperfusion 3 min
  Antiarrhythmic effect: 1.1 ± 1.5
[1]; po 10 mg/kg, reperfusion 4 min
  Antiarrhythmic effect: 1.2 ± 1.4
[1]; po 10 mg/kg, reperfusion 5 min
  Antiarrhythmic effect: 1.0 ± 1.2
[1]; po 10 mg/kg, reperfusion 6 min
  Antiarrhythmic effect: 0.8 ± 1.1
[1]; po 10 mg/kg, reperfusion 7 min
  Antiarrhythmic effect: 0.8 ± 1.1
[1]; po 10 mg/kg, reperfusion 15 min
  Antiarrhythmic effect: 0.8 ± 1.1
[1]; po 10 mg/kg, reperfusion 25 min
  Antiarrhythmic effect: 0.8 ± 1.1
[1]; po 30 mg/kg
  Arrhythmic scores: 3.2 ± 2.2
  Lethal risk: 57 ± 26
  Incidence of VF: 20%
  Death: 1
  animals with VF: 2
  animals without VF: 7
[1]; po 30 mg/kg, coronary occlusion 5 min
  Antiarrhythmic effect: 0 ± 0
[1]; po 30 mg/kg, coronary occlusion 10 min
  Antiarrhythmic effect: 1.6 ± 1.6
[1]; po 30 mg/kg, reperfusion 0.17 min
  Antiarrhythmic effect: 3.2 ± 1.2
[1]; po 30 mg/kg, reperfusion 0.33 min
  Antiarrhythmic effect: 2.8 ± 2.1
[1]; po 30 mg/kg, reperfusion 0.5 min
  Antiarrhythmic effect: 1.7 ± 1.7
[1]; po 30 mg/kg, reperfusion 1 min
  Antiarrhythmic effect: 1.1 ± 1.5
[1]; po 30 mg/kg, reperfusion 1.5 min
  Antiarrhythmic effect: 1.1 ± 1.5
[1]; po 30 mg/kg, reperfusion 3 min
  Antiarrhythmic effect: 1.6 ± 2.4
[1]; po 30 mg/kg, reperfusion 4 min
  Antiarrhythmic effect: 0.8 ± 1.3
[1]; po 30 mg/kg, reperfusion 5 min
  Antiarrhythmic effect: 0.2 ± 0.2
[1]; po 30 mg/kg, reperfusion 6 min
  Antiarrhythmic effect: 0.2 ± 0.2
[1]; po 30 mg/kg, reperfusion 7 min
  Antiarrhythmic effect: 0.15 ± 0.24
[1]; po 30 mg/kg, reperfusion 15 min
  Antiarrhythmic effect: 0.11 ± 0.22
[1]; po 30 mg/kg, reperfusion 25 min
  Antiarrhythmic effect: 0.05 ± 0.17
[1]; po 100 mg/kg
  Arrhythmic scores: 0.7 ± 0.2
  Lethal risk: 41 ± 0
  Incidence of VF: 0%
  Death: 0
  animals with VF: 0
  animals without VF: 10
[1]; po 100 mg/kg, coronary occlusion 5 min
  Antiarrhythmic effect: 0.20 ± 0.24
[1]; po 100 mg/kg, coronary occlusion 10 min
  Antiarrhythmic effect: 0.3 ± 0.6
[1]; po 100 mg/kg, reperfusion 0.17 min
  Antiarrhythmic effect: 0.10 ± 0.21
[1]; po 100 mg/kg, reperfusion 0.33 min
  Antiarrhythmic effect: 0.05 ± 0.16
[1]; po 100 mg/kg, reperfusion 0.5 min
  Antiarrhythmic effect: 0.4 ± 1.2
[1]; po 100 mg/kg, reperfusion 1 min
  Antiarrhythmic effect: 0.05 ± 0.16
[1]; po 100 mg/kg, reperfusion 1.5 min
  Antiarrhythmic effect: 0.05 ± 0.16
[1]; po 100 mg/kg, reperfusion 3 min
  Antiarrhythmic effect: 0.05 ± 0.16
[1]; po 100 mg/kg, reperfusion 4 min
  Antiarrhythmic effect: 0.05 ± 0.16
[1]; po 100 mg/kg, reperfusion 5 min
  Antiarrhythmic effect: 0.05 ± 0.16
[1]; po 100 mg/kg, reperfusion 6 min
  Antiarrhythmic effect: 0.05 ± 0.16
[1]; po 100 mg/kg, reperfusion 7 min
  Antiarrhythmic effect: 0.05 ± 0.16
[1]; po 100 mg/kg, reperfusion 15 min
  Antiarrhythmic effect: 0.05 ± 0.16
[1]; po 100 mg/kg, reperfusion 25 min
  Antiarrhythmic effect: 0.05 ± 0.16
[1]; iv
  therapeutic index (TI), VF: 35
  therapeutic index (TI), arrhythmias: 26
[1]; po
  therapeutic index (TI), VF: 92
  therapeutic index (TI), arrhythmias: 70
[2]; L-thyrotoxin, rats
  Vmax in cardiomyopathy model: completely inhibited
[2]; [4]
  APA: 104 ± 7 mv
  APD20: 12 ± 3 ms
  APD50: 32 ± 4 ms
  APD90: 65 ± 5 ms
  ERP: 66 ± 6 ms
  RP: 81 ± 5 mv
  Vmax: 160 ± 50 v/s
[3]
  Vmax under anoxia, high K+ and acidosis: lowered
[3]; anoxia, high K+ and acidosis, I13 (μmol/L, concentration not given), n=8
  RP: 85 ± 2 mv
[3]; [5]
  APA: 116 ± 2 mv
  APD20: 78 ± 13 ms
  APD50: 156 ± 20 ms
  APD90: 170 ± 21 ms
  ERP: 186 ± 19 ms
  Vmax: 190 ± 40 v/s
